Results on 3 compounds are retold here after PMC12053792 (Journal of Peptide Science, 2025).

The test system of data set [1] is TLR2. As to conditions: Pam2Cys adjuvanting moiety; ref [19]; cited from earlier work. The text has this:
Due to the small size of many CTAs (several under 100 amino acids in length), it is possible to produce the whole CTA synthetically via solid‐phase peptide synthesis (SPPS), coupled with native chemical ligation if required. […] An additional benefit of using palmitoyl functionality is the ability of the fatty acid chains to be incorporated into nanoparticles via sel ...

For data set [2], the system named is IFNγ‐secreting T‐cells. In words: In vivo immunisation, IFNγ ELISpot on splenocytes, BALB/c mice. As for the experimental part: Animal experiments were carried out with ethical approval from University of Nottingham ethical review board and under a Home Office approved project license (PP2706800). Mice were dosed with 10 nmol of material in 50 μL at Days 1, 8 and 15 (n = 3). IFNϒ ELISpot assays on splenocytes were conducted on termination at Day 21. General methods for the ELISpot can be found in the Supporting Information. Preparation of media and buffers and steps performed on Days 1 and 2 post‐termination; the ELISpot assays were performed using a laminar flow cabinet and aseptic techniques to ensure the sterility of media, reagents and plates at stages before development of the ELISpot. Development of the ELISpot on Day 4 posttermination was performed on the laboratory bench.
The response was measured by count of peptide‐specific IFNγ‐secreting T‐cells by ELISpot assay. Since no studies to date have addressed T‐cell responses to BAGE4 in conventional or HLA‐A2 (HHDII/DR1) transgenic mice, conventional mice were initially selected. The H‐2d haplotype (BALB/c) strain was selected for this study as the epitope predictions for peptides that bind to MHC I and II are effective for this strain (IEDB Analysis Resource). Splenocytes from the immunised mice were tested against three predicted epitope peptides from BAGE4_18–39, which should reactivate T‐cell responses in this strain of mice when immunised with BAGE4_18–39 vaccine candidates. Lipopolysaccharide (LPS; 5 μg/mL) was used as the positive control (non‐specific stimulus of the immune system).
In Vivo Evaluation (ELISpot Assay)
Animal experiments were carried out with ethical approval from University of Nottingham ethical review boards and under a Home Office approved project license (PP2706800). HLA-HHDII/DR1 (HLA-A2.1+/+ HLADR1+/+, Pasteur Institute) transgenic mice knocked out for murine MHC-I and II and expressing chimeric HLA-A2 (HHDII) and human HLA-DR1 or Balb/c mice (Charles River) aged 6-12 weeks were used. Mice were vaccinated with 10 ηmol of each immunogen at each timepoint. Doses were delivered subcutaneously (s.c.) in 50 µl volume on days 1, 8 and 15. No anaesthesia was used for injections. Responses were screened on day 21 after euthanasia by cervical dislocation. Preparation of media and buffers and steps performed on days 1 and 2 of the ELISpot assay were performed using a laminar flow cabinet and aseptic techniques to ensure the sterility of media, reagents and plates at stages before development of the ELISpot. Development of the ELISpot on day 4 can be performed on the […]
The following tables summarise the details of the vaccine candidates and vaccination procedure including (dose time points): […]
Table S6. Summary of the injection schedule (including dose concentration and number) for the following vaccine candidates: BAGE418-39 candidate (co-administered with IFA), Cys-BAGE4-MalLNP conjugate, Pam2Cys-SK4-BAGE18-39 (2), and 2-LNP using BALB/c mice. […]
peptide mixed splenocytes
1 with standard 10 nmol SC Day 1,8 & 15 3 Day 21 ELISA on
3 Pam2Cys-SK4- 10 nmol SC Day 1, 8 & 3 Day 1 Experiment
Pam2Cys-SK4- 10 nmol Day 1, 8 & Experiment
Elispot assays were performed using murine IFNγ capture and detection reagents according to the manufacturer’s instructions (Mabtech).
Day 1: Coating of plates with capture antibody
20 μL 35% ethanol was added to each well then discarded. Each plate was then washed 4 times with 200 μL of sterile distilled water per well. […]

Data set [3] deals with BALB/c mice. The experiment in a line: In vivo toxicity in healthy BALB/c mice. Particulars: antigen alone / components administered separately.
The subject of data set [4] is anti‐BAGE4 antibody. In words: Competitive ELISA, antibody recognition of BAGE4 antigen. It counts as binding, rabbit. As to conditions: 11 antigen concentrations between 1000 and 0.98 ng/mL, anti‐BAGE4 antibody SAB4301150 (1:250), 1 h, BAGE4-coated 384‐well plate, PBST with 0.05% Tween 20 as negative control, HRP/TMB, absorbance 450 nm. A general note: In an ELISA, binding on a coated surface is turned into a signal by an enzyme label.
Description: Antibody–antigen complexes were then added to 384‐well plates which were precoated with 10 ng/mL of antigen. The secondary antibody, specific to the primary and conjugated to horseradish peroxidase (HRP) enzyme (produced in rabbit), was added, followed by TMB for colour development.
The antigen was diluted to 100 ng/ml in carbonate-bicarbonate
buffer, then 60 μL of the antigen dilution was pipetted into the wells of Maxisorp 384 well plate.
The plate was diluted as required (23 dilutions were prepared) and incubated at 4 °C under
foil overnight. The coating solution was removed and the plate washed three times by filling
the wells with 200 μL PBST. The solutions or washes were removed by flicking the plate over
a sink, then patting the plate dry with a paper towel.
Remaining protein-binding sites in the coated wells were blocked by adding 40 μL blocking
buffer (3% whey, 0.05% NaN3, 0.1% EDTA in PBS) to each well. The plates were covered
with foil and incubated for 2 h at rt or overnight at 4 °C. Plates were washed three times by
filling the wells with 200 μL PBS.
Incubation with primary and secondary antibody
In an Abgene 96 well plate, 8 dilutions of primary antibody (anti-BAGE4 produced in rabbit;
Sigma Aldrich SAB4301150, and anti-NY-ESO-1 produced in mouse; Sigma Aldrich N2038) […]
The optical density at 450 nm was recorded. […]

Data set [5] concerns HLA‐A2. Particulars: ref [34], [35], [36]; cited from earlier work. The text has this:
(§1) Two CTA epitopes; NY‐ESO‐1_157‐165 and BAGE4_18–39 were employed as the antigenic components in our studies. […] BAGE4_18–39 represents the entire BAGE4 CTA minus the signal peptide; this antigen is expressed in 22% of melanomas and 30% of infiltrating bladder carcinomas; to our knowledge, it has not been evaluated in vivo. Inclusion of the ...

Data set [6] relates to CD8+ cells. As to conditions: models vaccinated against NY‐ESO‐1; ref [34], [35], [36]; cited from earlier work.
From the text: as §1

For orientation: IC50 means the midpoint of a concentration-inhibition curve. High values mean weaker potency in that assay, low ones greater potency in that assay.

Entries after “also recorded” stand apart in the source; their conditions may differ.

For the compound `CCCCCCCCCCCCCCCC(=O)OCC(CSCC(N)C(=O)O)OC(=O)CCCCCCCCCCCCCCC` (stereo not shown), the “Potency relative to (R)‐analogue” value in data set [1] is “hundredfold decrease in potency compared to the (R)‐analogue”.
“BAGE4_18–39: small (22 amino acid, excluding the signal peptide) underexplored melanoma antigen (RLMKEESPVVSWWLEPEDGTAL; UniProt Q86Y28 18-39, looked up, fragment)”: the “T‐cell response, median” value in data set [2] (BAGE4 peptide + IFA, 10 nmol in 50 μL s.c., days 1, 8, 15, n = 3, day 21, restimulated with BAGE4_18–39, IFNγ ELISpot count) was 511. The “T‐cell response / ANOVA significance (in words)” value in data set [2] (BAGE4 peptide + IFA, 10 nmol s.c., days 1, 8, 15, n = 3, restimulated with BAGE4_18–32) was “slightly lower responses”; in data set [2] (BAGE4 peptide + IFA, 10 nmol s.c., days 1, 8, 15, n = 3, restimulated with BAGE4_18–39), “good responses”; in data set [2] (BAGE4 peptide + IFA, 10 nmol s.c., days 1, 8, 15, n = 3, restimulated with BAGE4_22–31), “almost no response; also recorded: no significance”. Further, the “Immunogenicity (in words)” value in data set [2] (BALB/c mice, 10 nmol s.c., days 1, 8 and 15, n = 3, IFNγ ELISpot day 21) is “immunogenic in conventional BALB/c mice”. The “Toxicity of antigen or components administered separately” value in data set [3] is “does not show any toxicity”. Further, the half-inhibitory concentration (IC50) in data set [4] was 11.4 nM.
On to SLLMWITQC [NY‐ESO‐1_157‐165], for which the “Binding to HLA‐A2 (in words)” value in data set [5] is “able to bind to HLA‐A2”. Further, the “Immunogenicity / T‐cell reactivation (in words)” value in data set [6] is listed as “spontaneously immunogenic; also recorded: reactivate T‐cell responses (CD8+ cells)”.
